Our source for the EC50 and IC50 values is patent US12534450B2, “Methods and compositions for targeting PD-L1” (Aligos Therapeutics, Inc., priority 2021, dated 2026).

One test has as its system PD-1/PD-L1 interaction. As to the kind of experiment: PD-1/PD-L1 NFAT Reporter Assay (co-culture of Jurkat T cells overexpressing PD-1 and PD-L1 expressing CHO cells). The note with it: Homo sapiens, Jurkat, 6 h, co-culture 6 hrs at 37° C., NFAT-mediated luciferase activity. Format: cell-based. How it is done: Blocking the PD-1/PD-L1 interaction will release the inhibitory signal and results in TCR signaling and NFAT-mediated luciferase activity.
CHO cells expressing surface-bound anti-CD3 antibodies and PD-L1 were first seeded overnight and treated with the compounds. Jurkat cells overexpressing PD-1 and a luciferase construct under NFAT promoter were then immediately seeded on the monolayer of CHO cells. The co-culture was then incubated for 6 hrs at 37° C. Luciferase activity was assessed by adding the ONE-Glo reagent and measuring luminescence with a plate reader. EC50 values were determined from the fit of the dose-response curves.

In a further test the target is PD-1/PD-L1 PPI (Homo sapiens, UniProt Q9NZQ7). As to the kind of experiment: PDL1/PD1 Binding Assay. The settings on record: PDL1-6×His 0.3 nM, PD1-Fc-Avi-Biotin 2.5 nM, Acceptor/Donor beads, Envision reader. How it is done:
Compounds to be tested were serially diluted in DMSO, and further diluted in assay buffer (25 mM Hepes pH 7.4, 150 mM NaCl, 0.005% Tween 20, BSA 0.01%). Diluted compounds were added to the wells with final concentration of DMSO at 1%. PDL1-6×His protein was added to the wells, mixed well with compound. The plates were incubated for 30 min at room temperature. PD1-Fc-Avi-Biotin protein was added to the wells. Final concentration of PDL1 and PD1 protein is 0.3 nM and 2.5 nM, respectively. After a binding time of 30 min at room temperature, Anti-6×His Acceptor beads (final concentration 20 ug/ml) were added to the wells, and the incubation continued for 1 h. Streptavidin Donor beads (final concentration 20 ug/mL) were added at reduced light. The plates were sealed with foil and incubated in the dark for additional 1 h or overnight before reading on an Envision reader. The IC50 values were determined by fitting the curves using a four-parameter equation in Graphpad Prism 8.

PD-1/PD-L1 PPI, sequence (Q9NZQ7 19-238 limits assumed): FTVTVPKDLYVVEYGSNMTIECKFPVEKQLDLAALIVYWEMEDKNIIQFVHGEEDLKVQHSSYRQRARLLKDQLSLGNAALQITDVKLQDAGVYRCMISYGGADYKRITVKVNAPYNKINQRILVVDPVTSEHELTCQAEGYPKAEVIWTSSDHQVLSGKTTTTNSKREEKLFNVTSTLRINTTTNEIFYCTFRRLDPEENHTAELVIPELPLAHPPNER

As to `COc1nc(-c2cccc(-c3cccc(NC(=O)c4cn(C)c(=O)n(C)c4=O)c3Cl)c2Cl)cc2c1[C@@H](NC[C@@H]1CCC(=O)N1)CC2` (single isomer, unassigned) [Compound A-1], the EC50 with PD-1/PD-L1 interaction was ≤ 10 nM. Besides, on PD-1/PD-L1 PPI, the IC50 was ≤ 10 nM.
In the case of `COc1nc(-c2cccc(-c3cccc(NC(=O)c4cn(C)c(=O)n(C)c4=O)c3C)c2Cl)cc2c1[C@@H](NC[C@@H]1CCC(=O)N1)CO2` (single isomer, unassigned) [Compound A-19], the EC50 in the test with PD-1/PD-L1 interaction was 10 to 100 nM. The concentration for half-maximal inhibition (IC50) at PD-1/PD-L1 PPI was ≤ 10 nM.
For `COc1nc(-c2cccc(-c3cccc(NC(=O)c4cn(C)c(=O)n(C)c4=O)c3Cl)c2Cl)cc2c1[C@@H](N1CC3(CCC(=O)N3)C1)CC2` (single isomer, unassigned) [Compound A-20], in that order: 10 to 100 nM and ≤ 10 nM.
The like results for `COc1nc(-c2cccc(-c3cccc(NC(=O)c4cn(C)c(=O)n(C)c4=O)c3Cl)c2Cl)cc2c1[C@@H](N1CC3(CCNC3=O)C1)CC2` (single isomer, unassigned) [Compound A-21] were, in that order, 100 to 1000 nM and ≤ 10 nM.
Take `COc1nc(-c2cccc(-c3cccc(NC(=O)c4cn(C)c(=O)n(C)c4=O)c3Cl)c2Cl)cc2c1[C@H](N1CC3(CCNC3=O)C1)CC2` (single isomer, unassigned) [Compound A-22]: the 50% effective concentration (EC50) with PD-1/PD-L1 interaction is ≤ 10 nM. Further, the IC50 on PD-1/PD-L1 PPI is ≤ 10 nM.
For the compound `COc1nc(-c2cccc(-c3cccc(NC(=O)c4cn(C)c(=O)n(C)c4=O)c3Cl)c2Cl)cc2c1[C@H](N1CC3(CN(C(C)=O)C3)C1)CC2` (single isomer, unassigned) [Compound A-23], in the test with PD-1/PD-L1 interaction, the EC50 was ≤ 10 nM. Besides, the IC50 at PD-1/PD-L1 PPI is ≤ 10 nM.
For `COc1nc(-c2cccc(-c3cccc(NC(=O)c4cn(C)c(=O)n(C)c4=O)c3Cl)c2Cl)cc2c1[C@H](N1CC(OC)C1)CC2` (single isomer, unassigned) [Compound A-25], the EC50 in the test with PD-1/PD-L1 interaction was ≤ 10 nM. Moreover, the IC50 at PD-1/PD-L1 PPI is ≤ 10 nM.
As for `COc1nc(-c2cccc(-c3cccc(NC(=O)c4cn(C)c(=O)n(C)c4=O)c3Cl)c2Cl)cc2c1[C@H](N1CC(O)C1)CC2` (single isomer, unassigned) [Compound A-27], the EC50 in the test on PD-1/PD-L1 interaction is ≤ 10 nM. Also, the IC50 at PD-1/PD-L1 PPI is ≤ 10 nM.
Regarding `COc1nc(-c2cccc(-c3cccc(NC(=O)c4cn(C)c(=O)n(C)c4=O)c3C)c2Cl)cc2c1[C@H](N1CC(O)C1)CC2` (single isomer, unassigned) [Compound A-28], in the test on PD-1/PD-L1 interaction, the concentration for a half-maximal effect (EC50) was ≤ 10 nM. At PD-1/PD-L1 PPI, the half-inhibitory concentration (IC50) was ≤ 10 nM.
As for `COc1nc(-c2cccc(-c3cccc(NC(=O)c4cn(C)c(=O)n(C)c4=O)c3Cl)c2Cl)cc2c1[C@@H](N[C@@H]1CCOC[C@@H]1O)CC2` (single isomer, unassigned) [Compound A-29], the half-maximal effective concentration (EC50) in the test with PD-1/PD-L1 interaction is ≤ 10 nM. In addition, on PD-1/PD-L1 PPI, the IC50 is ≤ 10 nM.
`COc1nc(-c2cccc(-c3cccc(NC(=O)c4cn(C)c(=O)n(C)c4=O)c3Cl)c2Cl)cc2c1[C@H](N[C@@H]1CCOC[C@@H]1O)CC2` (single isomer, unassigned) [Compound A-30] registered an EC50 in the test with PD-1/PD-L1 interaction of 100 to 1000 nM. Also, the concentration for half-maximal inhibition (IC50) at PD-1/PD-L1 PPI was ≤ 10 nM.
For `COc1nc(-c2cccc(-c3cccc(NC(=O)c4cn(C)c(=O)n(C)c4=O)c3Cl)c2C)cc2c1[C@H](N[C@@H]1CCOC[C@@H]1O)CC2` (single isomer, unassigned) [Compound A-31], in that order: 1000 to 10000 nM and ≤ 10 nM.
For `COc1nc(-c2cccc(-c3cccc(NC(=O)c4cn(C)c(=O)n(C)c4=O)c3C)c2Cl)cc2c1[C@H](N[C@@H]1CCOC[C@@H]1O)CC2` (single isomer, unassigned) [Compound A-33], in that order: ≤ 10 nM and ≤ 10 nM.
For `COc1nc(-c2cccc(-c3cccc(NC(=O)c4cn(C)c(=O)n(C)c4=O)c3Cl)c2C)cc2c1[C@@H](N[C@@H]1CCOC[C@@H]1O)CC2` (single isomer, unassigned) [Compound A-39], in that order: ≤ 10 nM and ≤ 10 nM.
For `COc1nc(-c2cccc(-c3cccc(NC(=O)c4cn(C)c(=O)n(C)c4=O)c3C)c2Cl)cc2c1[C@@H](N[C@@H]1CCOC[C@@H]1O)CC2` (single isomer, unassigned) [Compound A-40], the concentration giving a half-maximal response (EC50) with PD-1/PD-L1 interaction is ≤ 10 nM. Besides, at PD-1/PD-L1 PPI, the IC50 was ≤ 10 nM.
With `COc1nc(-c2cccc(-c3cccc(NC(=O)c4cn(C)c(=O)n(C)c4=O)c3C)c2C)cc2c1[C@@H](N[C@@H]1CCOC[C@@H]1O)CC2` (single isomer, unassigned) [Compound A-41], in the test with PD-1/PD-L1 interaction, the EC50 was ≤ 10 nM. Moreover, the concentration for half-maximal inhibition (IC50) at PD-1/PD-L1 PPI is ≤ 10 nM.
In the test with PD-1/PD-L1 interaction, `COc1nc(-c2cccc(-c3cccc(NC(=O)c4cn(C)c(=O)n(C)c4=O)c3C)c2F)cc2c1[C@@H](N[C@@H]1CCOC[C@@H]1O)CC2` (single isomer, unassigned) [Compound A-42] returned an EC50 of 10 to 100 nM. Moreover, the 50% inhibitory concentration (IC50) at PD-1/PD-L1 PPI is ≤ 10 nM.
`COc1nc(-c2cccc(-c3cccc(NC(=O)c4cn(C)c(=O)n(C)c4=O)c3C)c2C)cc2c1[C@@H](NC[C@@H]1CCC(=O)N1)CO2` (single isomer, unassigned) [Compound A-49] showed a half-maximal effective concentration (EC50) in the test on PD-1/PD-L1 interaction of 10 to 100 nM. For the same compound, the half-maximal inhibitory concentration (IC50) at PD-1/PD-L1 PPI was ≤ 10 nM.
On to `COc1nc(-c2cccc(-c3cccc(NC(=O)c4cn(C)c(=O)n(C)c4=O)c3C)c2Cl)cc2c1[C@H](N1CC3(CN(C(C)=O)C3)C1)CC2` (single isomer, unassigned) [Compound A-72], for which the EC50 in the test on PD-1/PD-L1 interaction fell in the range of 10 to 100 nM. Besides, on PD-1/PD-L1 PPI, the half-maximal inhibitory concentration (IC50) is ≤ 10 nM.
The like results for `COc1nc(-c2cccc(-c3cc(F)cc(NC(=O)c4nn(C)c(=O)n(C)c4=O)c3C)c2C)cc2c1[C@@H](N[C@@H]1CCOC[C@@H]1O)CC2` (single isomer, unassigned) [Compound A-74] were, in that order, 10 to 100 nM and ≤ 10 nM.
The like results for `COc1nc(-c2cccc(-c3cccc(NC(=O)c4nn(C)c(=O)n(C)c4=O)c3C)c2C)cc2c1[C@@H](N[C@@H]1CCOC[C@@H]1O)CC2` (single isomer, unassigned) [Compound A-75] were, in that order, 10 to 100 nM and ≤ 10 nM.
The like results for `COc1nc(-c2cccc(-c3cccc(NC(=O)c4cn(C)c(=O)n(C)c4=O)c3C)c2C)cc2c1[C@@H](N1CC(O)C1)CC2` (single isomer, unassigned) [Compound A-79] were, in that order, > 5000 nM and 10 to 100 nM.
In the test on PD-1/PD-L1 interaction, `COc1nc(-c2cccc(-c3cccc(NC(=O)c4cn(C)c(=O)n(C)c4=O)c3C)c2C)cc2c1[C@H](N1CC(O)C1)CC2` (single isomer, unassigned) [Compound A-80] came in with a 50% effective concentration (EC50) of 10 to 100 nM. The IC50 at PD-1/PD-L1 PPI is ≤ 10 nM.
For `COc1nc(-c2cccc(-c3cccc(NC(=O)c4cn(C)c(=O)n(C)c4=O)c3C)c2C)cc2c1[C@@H](N1CC(OC)C1)CC2` (single isomer, unassigned) [Compound A-83], in that order: 10 to 100 nM and ≤ 10 nM.
The like results for `COc1nc(-c2cccc(-c3cccc(NC(=O)c4cn(C)c(=O)n(C)c4=O)c3C)c2C)cc2c1[C@H](N1CC(OC)C1)CC2` (single isomer, unassigned) [Compound A-84] were, in that order, > 5000 nM and 10 to 100 nM.
For `CCOC(=O)C1CN([C@H]2CCc3cc(-c4cccc(-c5cccc(NC(=O)c6cn(C)c(=O)n(C)c6=O)c5Cl)c4Cl)nc(OC)c32)C1` (single isomer, unassigned) [Compound A-85], in that order: 10 to 100 nM and ≤ 10 nM.
`CCOC(=O)C1CN([C@@H]2CCc3cc(-c4cccc(-c5cccc(NC(=O)c6cn(C)c(=O)n(C)c6=O)c5Cl)c4Cl)nc(OC)c32)C1` (single isomer, unassigned) [Compound A-86]: the EC50 in the test on PD-1/PD-L1 interaction was > 5000 nM. Moreover, the 50% inhibitory concentration (IC50) on PD-1/PD-L1 PPI was 100 to 1000 nM.
For `CCOC(=O)C1CN([C@H]2CCc3cc(-c4cccc(-c5cccc(NC(=O)c6ccnn(C)c6=O)c5Cl)c4Cl)nc(OC)c32)C1` (single isomer, unassigned) [Compound A-87], in that order: 10 to 100 nM and ≤ 10 nM.
The like results for `CCOC(=O)C1CN([C@H]2CCc3cc(-c4cccc(-c5cccc(NC(=O)c6ccnn(C)c6=O)c5C)c4Cl)nc(OC)c32)C1` (single isomer, unassigned) [Compound A-88] were, in that order, 10 to 100 nM and ≤ 10 nM.
Consider `COc1nc(-c2cccc(-c3cccc(NC(=O)c4cn(C)c(=O)n(C)c4=O)c3C)c2C)cc2c1[C@@H](N[C@@H]1CCOC[C@H]1O)CC2` (single isomer, unassigned) [Compound A-89], for which the EC50 in the test with PD-1/PD-L1 interaction is 1000 to 10000 nM. Moreover, at PD-1/PD-L1 PPI, the IC50 was 10 to 100 nM.
The like results for `COc1nc(-c2cccc(-c3cccc(NC(=O)c4cn(C)c(=O)n(C)c4=O)c3C)c2C)cc2c1[C@H](N[C@@H]1CCOC[C@H]1O)CC2` (single isomer, unassigned) [Compound A-90] were, in that order, 10 to 100 nM and ≤ 10 nM.
In the case of `COc1nc(-c2cccc(-c3cccc(NC(=O)c4nn(C)c(=O)n(C)c4=O)c3C)c2C)cc2c1[C@@H](N[C@@H]1CCOC[C@H]1O)CC2` (single isomer, unassigned) [Compound A-91], in the test on PD-1/PD-L1 interaction, the EC50 lay within 1000 to 10000 nM. At PD-1/PD-L1 PPI, the IC50 is ≤ 10 nM.

As usually defined, the EC50 is the concentration giving half of the maximal effect. Low values mean greater potency, high ones weaker potency. As usually defined, the IC50 is the concentration that inhibits the measured activity by half. A high value points to a need for much substance.
